Usually Km stands for the concentration of substrate that gives half-maximal velocity. Broadly, the IC50 is the concentration that gives 50% inhibition.

Where a SMILES comes first, the peptide text is derived from it. The star is where a group is joined. pNA = O=[N+]([O-])c1ccc(N*)cc1

Test [1] concerns serum DPPIV (soluble 175 kDa form of DPPIV/CD26, DPPT-L) purified from normal human serum. Kind of test: DPPIV enzyme activity: Gly-Pro-pNA hydrolysis, Michaelis-Menten kinetics and inhibition. The class given is biochemical. The procedure: The DPPIV enzyme activities of the rsCD26 and serum DPPIV were analyzed by Michaelis-Menten kinetics by assessing kinetics of hydrolysis of substrate at different concentrations. […] To further exclude the possibility that we had purified irrelevant aminopeptidases which, working in concert or by sequential hydrolysis, could release the pNA chromophore from substrate, we tested a number of substrates which could be hydrolyzed by non-DPPIV aminopeptidases. One candidate for sequential hydrolysis is aminopeptidase M (3.4.11.2), but no hydrolysis of Ala-pNA, Arg-pNA or Leu-pNA was observed and activity by aminopolypeptidase (3.4.11.14) may be similarly excluded. The substrate succinyl-Gly-Pro-pNA was also not hydrolyzed. The only substrate apart from the dipeptide chromatogen Gly-Pro-pNA which could be hydrolyzed was Val-Ala-pNA, which was cleaved by both the serum DPPIV and rsCD26 (relative to rate of hydrolysis of Gly-Pro-pNA, hydrolysis of Val-Ala-pNA was 0.098 and 0.079, for rsCD26 and serum DPPIV, respectively). Although DPPIV primarily hydrolyses dipeptides with a proline in the penultimate position, it is well documented that alanine in the penultimate position may also render a dipeptide sequence susceptible to cleavage by DPPIV (8). […]
DPPIV activity: The primary substrate used for determining DPPIV activity in all assays was Gly-Pro-p-nitroanilide (Gly-Pro-pNA; Sigma), which is hydrolyzed by DPPIV to release pNA absorbing strongly at 405 nm. […] Inhibition of the hydrolysis of Gly-Pro-pNA was determined in the presence of the specific DPPIV inhibitor Diprotin A (Bachem, King of Prussia, Pa.). […] The pH optimum was determined substituting phosphate buffer (100 mM, pH4.5-pH9) in place of standard incubation buffer.
Serum DPPIV: Serum DPPIV was prepared by isolating from 100 ml of pooled normal human male AB serum the fraction of protein precipitated by 50-70% saturated ammonium sulfate. […] The DPPIV activity was eluted by a 0-0.5M NaCl gradient in equilibration buffer and all DPPIV activity was found in the 10 mM-50 mM NaCl eluate (determined by conductance). […]

For test [2], the target named is recombinant soluble CD26 (rsCD26), full extracellular domain of human T cell membrane CD26/DPPIV, 105 kDa form, from transfected CHO cells (Homo sapiens, UniProt P27487). The description is as above. Conditions: U = enzyme cleaving 1 mmol Gly-Pro-pNA/min at pH7.6 and 20° C.
recombinant soluble CD26 (rsCD26), full extracellular domain of human T cell membrane CD26/DPPIV, 105 kDa form, from transfected CHO cells, sequence (P27487 29-766 limits assumed): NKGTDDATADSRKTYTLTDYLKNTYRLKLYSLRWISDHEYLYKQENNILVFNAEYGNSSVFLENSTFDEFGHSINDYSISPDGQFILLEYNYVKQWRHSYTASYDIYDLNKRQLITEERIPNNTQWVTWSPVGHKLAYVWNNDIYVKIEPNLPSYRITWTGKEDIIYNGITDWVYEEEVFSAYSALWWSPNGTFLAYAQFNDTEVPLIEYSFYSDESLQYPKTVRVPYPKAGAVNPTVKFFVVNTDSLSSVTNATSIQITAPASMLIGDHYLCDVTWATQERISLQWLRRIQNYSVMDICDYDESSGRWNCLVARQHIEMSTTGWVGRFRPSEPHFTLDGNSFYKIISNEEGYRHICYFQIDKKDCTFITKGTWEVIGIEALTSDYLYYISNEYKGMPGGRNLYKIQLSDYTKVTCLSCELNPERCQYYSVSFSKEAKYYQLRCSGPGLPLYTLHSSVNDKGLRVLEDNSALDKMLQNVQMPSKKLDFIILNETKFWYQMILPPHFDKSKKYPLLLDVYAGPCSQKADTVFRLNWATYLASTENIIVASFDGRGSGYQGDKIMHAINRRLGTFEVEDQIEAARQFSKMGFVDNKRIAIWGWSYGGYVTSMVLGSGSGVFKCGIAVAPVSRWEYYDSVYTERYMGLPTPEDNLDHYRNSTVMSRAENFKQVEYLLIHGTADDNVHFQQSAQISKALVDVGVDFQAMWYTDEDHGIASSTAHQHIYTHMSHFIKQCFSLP
Procedure: DPPIV activity: The primary substrate used for determining DPPIV activity in all assays was Gly-Pro-p-nitroanilide (Gly-Pro-pNA; Sigma), which is hydrolyzed by DPPIV to release pNA absorbing strongly at 405 nm. Kinetic assays were performed using varying amounts of substrate in order to obtain estimates of the Km and Vmax using standard Michaelis-Menten kinetics. For screening assays of DPPIV activity, 150 ml of substrate was used at 1 mg/ml (2 mM final concentration) in phosphate buffer (pH7.6, 100 mM) in 96 well flat-bottomed microtiter plates together with 10 ml of appropriately diluted sample. For samples obtained after elution from the s-Sepharose column, the pH was raised to pH7.6 by addition of 25 μl of 1M Tris-HCl, pH7.6 to the reaction mixture. One unit (U) of enzyme activity was defined as the amount of enzyme that cleaved 1 mmol of Gly-Pro-pNA/min at pH7.6 and 20° C. […] The pH optimum was determined substituting phosphate buffer (100 mM, pH4.5-pH9) in place of standard incubation buffer.

In the case of `NCC(=O)N1CCC[C@H]1C(=O)Nc1ccc([N+](=O)[O-])cc1` [Gly-Pro-pNA, Gly-Pro-p-nitroanilide] (H-Gly-Pro-pNA), the Km in test [1] (Lineweaver-Burke transformation, substrate at different concentrations) was 280 µM. In addition, the “Vmax, Gly-Pro-pNA as substrate” value was 0.65 U/nmol serum DPPIV in test [1] (U = enzyme cleaving 1 mmol Gly-Pro-pNA/min at pH7.6 and 20° C.); 1.52 U/nmol rsCD26 in test [2].

Regarding `CC[C@H](C)[C@H](N)C(=O)N1CCC[C@H]1C(=O)N[C@H](C(=O)O)[C@@H](C)CC` [Diprotin A], the concentration for half-maximal inhibition (IC50) in test [1] (read-out: IC50 (Diprotin A), inhibition of the hydrolysis of Gly-Pro-pNA) was 250 µM.

The values are drawn from patent US6265551A, “Form of dipeptidylpeptidase IV (CD26) found in human serum, antibodies thereto, and uses thereof” (Dana-Farber Cancer Institute, Inc., priority 1996, dated 2001).
